The text below walks through data of patent US20220323406A1, “METHODS AND COMPOSITIONS FOR DIFFERENTIATING STEM CELLS” (Massachusetts Institute of Technology, priority 2019, published 2022).

Holding throughout (details): primary screen
Experiment [1] concerns ENR+CD organoids (ISC to Paneth cell differentiation). Briefly: Primary screen: basal (non-stimulated) lysozyme secretion LYZ.NS, 2.5-D 384-well ENR+CD organoid differentiation. Type of experiment: cell-based, mouse. An excerpt: (§1) High-throughput screening.
Experiment [2] shares this test system. Briefly: Primary screen: CCh-stimulated lysozyme secretion LYZ.S, 2.5-D 384-well ENR+CD organoid differentiation. The format is cell-based, mouse.
Source text: as §1

The subject of another experiment is ENR+CD organoids. The experiment can be described thus: Primary screen: ATP (CellTiter-Glo 3D, CTG) cell number/viability, 2.5-D 384-well ENR+CD organoids. (In general: In ATP-based viability assays light output follows the ATP content of the culture.)
Setting [3] is: 1st dose row of the treatment (0.08 uM by row order; dose not reprinted).
[4] abbreviates: 2nd dose row of the treatment (0.40 uM by row order; dose not reprinted).
[5] abbreviates: 3rd dose row of the treatment (2.00 uM by row order; dose not reprinted).
[6] abbreviates: 4th dose row of the treatment (10.00 uM by row order; dose not reprinted).

Molecules are shown by their SMILES. Structures can show the parent of a compound that is named as a salt.
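Wherever Dose.FC.CTG is given: compounds given at plating and again on day 3 over a 6-day differentiation from ENR+CV stem-cell-enriched precursors, ATP measured on day 6, plate median as control.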
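Wherever SSMD.CTG.Rep (strictly standardized mean difference) is given: compounds given at plating and again on day 3 over a 6-day differentiation from ENR+CV stem-cell-enriched precursors, ATP measured on day 6, plate median as control.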
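Wherever Z.CTG (standard z score) is given: compounds given at plating and again on day 3 over a 6-day differentiation from ENR+CV stem-cell-enriched precursors, ATP measured on day 6, plate median as control.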

Turning to `CC1(C)CCC(CN2CCN(c3ccc(C(=O)NS(=O)(=O)c4ccc(NCC5CCOCC5)c([N+](=O)[O-])c4)c(Oc4cnc5[nH]ccc5c4)c3)CC2)=C(c2ccc(Cl)cc2)C1` [ABT-199 (GDC-0199)], the “SSMD.LYZ.NS_Rep (strictly standardized mean difference)” value is listed as −0.009 in experiment [1] (setting [3]), −0.192 in experiment [1] (setting [4]), −0.116 in experiment [1] (setting [5]) and −0.810 in experiment [1] (setting [6]). Moreover, the Dose.FC.LYZ.NS in experiment [1] (dose 0.08 uM) was −0.002 log2 fold change; in experiment [1] (dose 0.40 uM), −0.029 log2 fold change; in experiment [1] (dose 2.00 uM), −0.016 log2 fold change; in experiment [1] (dose 10.00 uM), −0.169 log2 fold change. Further, the “Z.LYZ.NS (standard z score)” value in experiment [1] (dose 0.08 uM) is reported as −0.013; in experiment [1] (dose 0.40 uM) it was −0.251; in experiment [1] (dose 2.00 uM), −0.136; in experiment [1] (dose 10.00 uM), −1.471. In addition, the “SSMD.LYZ.S_Rep (strictly standardized mean difference)” value in experiment [2] (setting [3]) was −0.260; in experiment [2] (setting [4]) it was 0.443; in experiment [2] (setting [5]), −0.368; in experiment [2] (setting [6]), −1.131. The “Z.LYZ.S (standard z score)” value was −0.285 in experiment [2] (setting [3]), 0.494 in experiment [2] (setting [4]), −0.404 in experiment [2] (setting [5]) and −1.890 in experiment [2] (setting [6]). Also, the Dose.FC.LYZ.S is on record as −0.044 log2 fold change in experiment [2] (dose 0.08 uM), 0.076 log2 fold change in experiment [2] (dose 0.40 uM), −0.063 log2 fold change in experiment [2] (dose 2.00 uM) and −0.292 log2 fold change in experiment [2] (dose 10.00 uM). Further, the “SSMD.CTG.Rep (strictly standardized mean difference)” value in the experiment with ENR+CD organoids (setting [3]) is listed as 0.051; in the experiment on ENR+CD organoids (setting [4]), 0.111; with ENR+CD organoids (setting [5]) it was −0.377; with ENR+CD organoids (setting [6]), −1.402. Besides, the Dose.FC.CTG with ENR+CD organoids (dose 0.08 uM) was 0.019 log2 fold change; in the experiment on ENR+CD organoids (dose 0.40 uM), 0.038 log2 fold change; with ENR+CD organoids (dose 2.00 uM) it was −0.278 log2 fold change; with ENR+CD organoids (dose 10.00 uM) it was −0.519 log2 fold change. Also, the “Z.CTG (standard z score)” value with ENR+CD organoids (dose 0.08 uM) is 0.045; in the experiment with ENR+CD organoids (dose 0.40 uM), 0.090; in the experiment with ENR+CD organoids (dose 2.00 uM) it was −0.665; in the experiment on ENR+CD organoids (dose 10.00 uM) it was −1.240.
Take `CC1(C)CCC(c2ccc(Cl)cc2)=C(CN2CCN(c3ccc(C(=O)NS(=O)(=O)c4ccc(N[C@H](CCN5CCOCC5)CSc5ccccc5)c(S(=O)(=O)C(F)(F)F)c4)cc3)CC2)C1` [ABT-263 (Navitoclax)]: the Dose.FC.LYZ.NS in experiment [1] (dose 0.08 uM) is given as 0.012 log2 fold change; in experiment [1] (dose 0.40 uM), 0.007 log2 fold change; in experiment [1] (dose 2.00 uM), −0.143 log2 fold change; in experiment [1] (dose 10.00 uM), −0.259 log2 fold change. Besides, the “Z.LYZ.NS (standard z score)” value in experiment [1] (dose 0.08 uM) is on record as 0.104; in experiment [1] (dose 0.40 uM) it was 0.062; in experiment [1] (dose 2.00 uM), −1.248; in experiment [1] (dose 10.00 uM) it was −2.259. For the same compound, the Dose.FC.LYZ.S in experiment [2] (dose 0.08 uM) is listed as −0.010 log2 fold change; in experiment [2] (dose 0.40 uM), −0.020 log2 fold change; in experiment [2] (dose 2.00 uM) it was −0.205 log2 fold change; in experiment [2] (dose 10.00 uM), −0.400 log2 fold change. For the same compound, the Dose.FC.CTG is −0.212 log2 fold change in the experiment with ENR+CD organoids (dose 0.08 uM), −0.264 log2 fold change in the experiment on ENR+CD organoids (dose 0.40 uM), −0.368 log2 fold change in the experiment on ENR+CD organoids (dose 2.00 uM) and −0.962 log2 fold change in the experiment with ENR+CD organoids (dose 10.00 uM). In addition, the “Z.CTG (standard z score)” value was −0.507 in the experiment on ENR+CD organoids (dose 0.08 uM), −0.631 in the experiment with ENR+CD organoids (dose 0.40 uM), −0.878 with ENR+CD organoids (dose 2.00 uM) and −2.298 in the experiment on ENR+CD organoids (dose 10.00 uM).
As to `CCN(CC)C(=O)c1ccc(C2=CC3(CCNCC3)Oc3cccc(O)c32)cc1` [ADL5859 HCl], the Dose.FC.LYZ.NS was 0.053 log2 fold change in experiment [1] (dose 0.08 uM), 0.019 log2 fold change in experiment [1] (dose 0.40 uM), 0.066 log2 fold change in experiment [1] (dose 2.00 uM) and −0.056 log2 fold change in experiment [1] (dose 10.00 uM). Moreover, the “Z.LYZ.NS (standard z score)” value was 0.458 in experiment [1] (dose 0.08 uM), 0.163 in experiment [1] (dose 0.40 uM), 0.571 in experiment [1] (dose 2.00 uM) and −0.488 in experiment [1] (dose 10.00 uM). For the same compound, the Dose.FC.LYZ.S in experiment [2] (dose 0.08 uM) is on record as 0.079 log2 fold change; in experiment [2] (dose 0.40 uM), 0.104 log2 fold change; in experiment [2] (dose 2.00 uM), 0.070 log2 fold change; in experiment [2] (dose 10.00 uM) it was −0.040 log2 fold change. Further, the Dose.FC.CTG in the experiment with ENR+CD organoids (dose 0.08 uM) is 0.270 log2 fold change; with ENR+CD organoids (dose 0.40 uM), 0.163 log2 fold change; in the experiment with ENR+CD organoids (dose 2.00 uM), 0.291 log2 fold change; with ENR+CD organoids (dose 10.00 uM) it was 0.194 log2 fold change.
As for `O=C(c1ccc(F)cc1)N1CCC[C@H](c2nc(-c3ccc(F)cc3)no2)C1` [ADX-47273], the Dose.FC.LYZ.NS in experiment [1] (dose 0.08 uM) was 0.269 log2 fold change; in experiment [1] (dose 0.40 uM), 0.053 log2 fold change; in experiment [1] (dose 2.00 uM), −0.033 log2 fold change; in experiment [1] (dose 10.00 uM), −0.036 log2 fold change. In addition, the “Z.LYZ.NS (standard z score)” value in experiment [1] (dose 0.08 uM) was 2.346; in experiment [1] (dose 0.40 uM), 0.457; in experiment [1] (dose 2.00 uM) it was −0.286; in experiment [1] (dose 10.00 uM), −0.311. For the same compound, the Dose.FC.LYZ.S is 0.147 log2 fold change in experiment [2] (dose 0.08 uM), 0.147 log2 fold change in experiment [2] (dose 0.40 uM), −0.039 log2 fold change in experiment [2] (dose 2.00 uM) and −0.070 log2 fold change in experiment [2] (dose 10.00 uM). Moreover, the Dose.FC.CTG in the experiment on ENR+CD organoids (dose 0.08 uM) is recorded as 0.115 log2 fold change; in the experiment on ENR+CD organoids (dose 0.40 uM), −0.034 log2 fold change; in the experiment with ENR+CD organoids (dose 2.00 uM), −0.210 log2 fold change; with ENR+CD organoids (dose 10.00 uM) it was −0.039 log2 fold change. The “Z.CTG (standard z score)” value with ENR+CD organoids (dose 0.08 uM) is recorded as 0.274; with ENR+CD organoids (dose 0.40 uM), −0.082; in the experiment with ENR+CD organoids (dose 2.00 uM), −0.501; in the experiment with ENR+CD organoids (dose 10.00 uM), −0.094.
On to `CN(C)Cc1ccc(-c2nc3cccc4c3n2CCNC4=O)cc1` [AG-14361], for which the Dose.FC.LYZ.NS in experiment [1] (dose 0.08 uM) is 0.152 log2 fold change; in experiment [1] (dose 0.40 uM), 0.036 log2 fold change; in experiment [1] (dose 2.00 uM), 0.032 log2 fold change; in experiment [1] (dose 10.00 uM), −0.197 log2 fold change. The “Z.LYZ.NS (standard z score)” value in experiment [1] (dose 0.08 uM) is given as 1.324; in experiment [1] (dose 0.40 uM) it was 0.312; in experiment [1] (dose 2.00 uM), 0.278; in experiment [1] (dose 10.00 uM) it was −1.713. The Dose.FC.LYZ.S in experiment [2] (dose 0.08 uM) is recorded as 0.100 log2 fold change; in experiment [2] (dose 0.40 uM), −0.001 log2 fold change; in experiment [2] (dose 2.00 uM) it was −0.065 log2 fold change; in experiment [2] (dose 10.00 uM) it was −0.189 log2 fold change. The Dose.FC.CTG in the experiment on ENR+CD organoids (dose 0.08 uM) is reported as −0.012 log2 fold change; in the experiment with ENR+CD organoids (dose 0.40 uM) it was −0.069 log2 fold change; with ENR+CD organoids (dose 2.00 uM), 0.005 log2 fold change; with ENR+CD organoids (dose 10.00 uM) it was −0.021 log2 fold change. Further, the “Z.CTG (standard z score)” value was −0.028 in the experiment on ENR+CD organoids (dose 0.08 uM), −0.165 in the experiment with ENR+CD organoids (dose 0.40 uM), 0.012 with ENR+CD organoids (dose 2.00 uM) and −0.050 with ENR+CD organoids (dose 10.00 uM).
